Test results published in patent publication US20050215621A1, “Method of treating amyloid beta precursor disorders” (Andrx Labs, LLC, priority 1999, published 2005).

Tests used:
[1] = test system: H4, MDCK, and CHO cells, expressing human APPm; assay: [35S]-Met pulse-chase, immunoprecipitation (antibody 6E10) and autoradiography of Aβ peptides after 4 days with compound; type: cell-based, canine, Chinese hamster; conditions: for decrease of extracellular Aβ peptides as compared to the untreated cells: 0.5 μM, 4 days, H4, MDCK, CHO cells
Experimental: (§1) The three cell lines utilized were: Chinese Hamster Ovary (CHO) cells expressing the 751 amino acid form of APP; Mabin-Darby Canine Kidney (MDCK) cells which overexpress the 695 amino acid form of APP; Human neuroglioma (H4) cells overexpressing the 695 form of human APP. All cells were prepared by the stable introduction of a cDNA coding for human APP. All cell lines were maintained in DMEM containing 10% FBS and antibiotics.
In order to characterize the effects of cholesterol depletion, cell cultures of each cell line were cultured on six-well plates for 4 days in DMEM containing 10% FCLPDS, in the presence of lovastatin or lovastatin acid (LA).
For measurement of APP processing and Aβ peptide formation, medium was removed and the cells were washed once with PBS and then incubated for 2 hours in DMEM containing 1 mCi/ml [^35S] Methionine. After this “pulse” period, the cells were either (1) lysed to measure the total labeled APPi and APPm at time zero, or (2) the cells were incubated for 2 hours in fresh, unlabeled complete medium (“chase”) and then lysed. Then the cell supernatants and lysates were treated with the appropriate antibody to calculate the amounts of APPi, APPm, APPs, and Aβ peptides.
To measure Aβ peptides, or to measure APPs, which is the secreted carboxyl-terminal truncated form, cell supernatants were incubated with antibody 6E10,which recognizes the first 15 amino acids of the Aβ peptide that correspond to the COOH-terminal amino acids of APPs. See Buxbaum, J. D., et al. (I 994) Proc Natl Acad Sci USA, 91:4489-93, which is incorporated herein by reference.
The incubations with antibody 6E10 or antibody 369 were performed at 4° C. for 75 minutes followed by a 45 minute incubation at 4° C. with either agarose-linked anti-mouse IgG for antibody 6E1O or protein A sepharose for antibody 369. The beads were then washed three times for 10 minutes and then run on either a 10-20% Tris-Tricine Gel for APPs and Aβ peptides or an 8% polyacrylamide gel for cell-associated APP. The gels were dried and exposed to a Phosphor Imager® screen (STORM 860, Molecular Dynamics) and exposed for a minimum of two days. The protein bands were visualized on a STORM 860 Phosphor Imager® (Molecular Dynamics) and quantitated using ImageQuant® (Molecular Dynamics).
To determine whether a decrease in cholesterol is associated with a change in the amount of extracellular Aβ peptides, the H4, MDCK, and CHO cells, expressing human APPm were incubated for 4 days in the presence or absence of 0.5 μM LA. The cells were then incubated in serum-free media containing 1 mCi/mi [^35S] […] Relative levels of extracellular Aβ peptides were determined under each condition by quantitative PhosphorImager autoradiography. […]

[2] = test system: Human neuroglioma (H4) cells overexpressing the 695 form of human APP; assay: APP processing ([35S]-labeled APPs and APPm) in H4 cells; type: cell-based
Experimental: as §1
For measurement of APP processing and Aβ peptide formation, medium was removed and the cells were washed once with PBS and then incubated for 2 hours in DMEM containing 1 mCi/ml [^35S] Methionine. […]
The incubations with antibody 6E10 or antibody 369 were performed at 4° C. for 75 minutes followed by a 45 minute incubation at 4° C. with either agarose-linked anti-mouse IgG for antibody 6E1O or protein A sepharose for antibody 369. […] The protein bands were visualized on a STORM 860 Phosphor Imager® (Molecular Dynamics) and quantitated using ImageQuant® (Molecular Dynamics).
To determine whether cholesterol depletion affects other aspects of APP processing, H4 cells were incubated for four days in the presence or absence of 0.5 μM LA, and subjected to metabolic labeling. The levels of [^35S]-labeled APPi and APPm were determined by immunoprecipitation from cell lysates with an antibody against the COOH-terminal of APP, followed by quantitative autoradiography. […]

Structure (SMILES) | [35S]-labeled intracellular Aβ peptides in cell lysates ([1]; 0.5 μM LA) | decrease of extracellular Aβ peptides as compared to the untreated cells [1] | concentration sufficient to significantly (p<0.001) decrease extracellular Aβ peptides ([1]; each cell type, various LA concentrations) [µM] | effects on maturation ([35S]-labeled APPm levels) ([2]; 0.5 μM LA (FIG. 6)) | [35S]-labeled APPs formation compared to control cells ([2]; H4 cells, 0.5 μM LA, 4 days (FIG. 5))
CC[C@H](C)C(=O)O[C@H]1C[C@@H](C)C=C2C=C[C@H](C)[C@H](CC[C@@H](O)C[C@@H](O)CC(=O)O)[C@H]21 [LA, lovastatin acid] | No detectable levels | 40-60% | ≥ 0.05 | not sufficient to account for the decrease in Aβ peptide levels | modest decrease
CC[C@H](C)C(=O)O[C@H]1C[C@@H](C)C=C2C=C[C@H](C)[C@H](CC[C@@H]3C[C@@H](O)CC(=O)O3)[C@H]21 [lovastatin] |  | < 20% |  |  | 
